Source: ChEMBL document CHEMBL2157932, “Synthesis and pharmacological evaluation of carbamic acid 1-phenyl-3-(4-phenyl-piperazine-1-yl)-propyl ester derivatives as new analgesic agents” (Bioorg Med Chem Lett, 2012)
Calls of active or inactive are those of the source. The rule behind the calls is not given here.

Legend:
Mus musculus [1] = test: Analgesic activity in mouse assessed as inhibition of acetic acid-induced writhing response at 10 mg/kg, po administered 0.5 to 1 hr before acetic acid challenge; assay type: functional
[2] = target: 5-hydroxytryptamine receptor 2A (Rattus norvegicus, UniProt P14842); test: Displacement of [3H]-ketanserin from 5HT2A receptor in rat cortical membrane; assay type: cell membranes
Chain of 5-hydroxytryptamine receptor 2A (P14842 whole entry): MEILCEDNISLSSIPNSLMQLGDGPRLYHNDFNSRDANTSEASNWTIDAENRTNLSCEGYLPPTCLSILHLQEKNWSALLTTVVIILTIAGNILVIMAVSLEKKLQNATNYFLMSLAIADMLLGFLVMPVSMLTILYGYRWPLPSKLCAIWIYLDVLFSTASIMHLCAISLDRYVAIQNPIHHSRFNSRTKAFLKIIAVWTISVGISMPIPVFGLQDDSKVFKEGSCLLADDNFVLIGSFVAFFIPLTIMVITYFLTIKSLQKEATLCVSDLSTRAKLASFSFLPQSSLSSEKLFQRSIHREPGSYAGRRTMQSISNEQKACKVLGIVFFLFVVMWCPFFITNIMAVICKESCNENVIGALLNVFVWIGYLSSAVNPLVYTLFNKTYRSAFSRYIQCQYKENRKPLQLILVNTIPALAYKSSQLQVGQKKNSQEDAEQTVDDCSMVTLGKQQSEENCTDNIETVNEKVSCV

[3] = target: T1, 5-hydroxytryptamine receptor 1A (Rattus norvegicus, UniProt P19327); test: Displacement of [3H]-8-OH-DPAT from 5HT1A receptor in rat hippocampus; assay type: tissue-based
T1 sequence (P19327 whole entry): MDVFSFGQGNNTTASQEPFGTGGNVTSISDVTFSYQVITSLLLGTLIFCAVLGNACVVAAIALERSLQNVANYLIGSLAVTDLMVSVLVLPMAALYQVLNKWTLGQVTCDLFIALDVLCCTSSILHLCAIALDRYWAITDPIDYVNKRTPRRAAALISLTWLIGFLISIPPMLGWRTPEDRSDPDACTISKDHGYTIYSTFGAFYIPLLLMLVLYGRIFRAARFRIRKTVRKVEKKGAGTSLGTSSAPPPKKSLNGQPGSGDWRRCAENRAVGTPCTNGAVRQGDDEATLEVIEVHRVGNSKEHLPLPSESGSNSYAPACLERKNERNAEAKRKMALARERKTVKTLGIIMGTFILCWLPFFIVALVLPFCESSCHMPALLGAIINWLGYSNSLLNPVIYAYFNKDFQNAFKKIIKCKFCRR

[4] = Half life in human liver microsomes by LC/MS/MS; assay type: ADME, Microsome
Mus musculus [5] = test: Neurotoxicity in mouse at 100 mg/kg, ip by rotarod test; assay type: toxicity, organism-based; parameters: dose 100 mg/kg, route intraperitoneal; details: in vivo
Mus musculus [6] = test: Analgesic activity in mouse assessed as inhibition of acetic acid-induced writhing response at 10 mg/kg, ip administered 0.5 to 1 hr before acetic acid challenge; assay type: functional; details: route intraperitoneal
Mus musculus [7] = test: Analgesic activity in po dosed mouse assessed as inhibition of acetic acid-induced writhing response administered 0.5 to 1 hr before acetic acid challenge; assay type: functional
Mus musculus [8] = test: Antinociceptive activity in late phase po dosed mouse by formalin test; assay type: functional
Mus musculus [9] = test: Antinociceptive activity in po dosed mouse by hot plate test; assay type: functional
Rattus norvegicus [10] = test: Antiinflammatory activity in po dosed rat persistent inflammatory pain model assessed as inhibition of carrageenan-induced mechanical hyperalgesia; assay type: functional
Mus musculus [11] = test: Analgesic activity in ip dosed mouse assessed as inhibition of acetic acid-induced writhing response administered 0.5 to 1 hr before acetic acid challenge; assay type: functional
Mus musculus [12] = test: Neurotoxicity in mouse at 30 mg/kg, ip by rotarod test; assay type: toxicity, organism-based; parameters: dose 30 mg/kg, route intraperitoneal; details: in vivo
Rattus norvegicus [13] = test: Antiinflammatory activity in rat persistent inflammatory pain model assessed as inhibition of carrageenan-induced mechanical hyperalgesia at 100 mg/kg, po; assay type: functional
Mus musculus [14] = test: Antinociceptive activity in late phase ip dosed mouse by formalin test; assay type: functional
Mus musculus [15] = test: Antinociceptive activity in mouse up to 100 mg/kg, ip by hot plate test; assay type: functional, organism-based; parameters: dose 100 mg/kg
[16] = Neurotoxicity in ip dosed mouse by rotarod test; assay type: toxicity, organism-based; details: in vivo
[17] = Half life in rat liver microsomes by LC/MS/MS; assay type: ADME, Microsome
[18] = target: 5-hydroxytryptamine receptor 2A (Rattus norvegicus) (UniProt P14842); test: Displacement of [3H]-ketanserin from 5HT2A receptor in rat cortical membrane at 1 uM; assay type: cell membranes
Chain of 5-hydroxytryptamine receptor 2A (Rattus norvegicus) (P14842 whole entry): as the sequence (P14842 whole entry) above

[19] = target: T2, 5-hydroxytryptamine receptor 1A (Rattus norvegicus) (UniProt P19327); test: Displacement of [3H]-8-OH-DPAT from 5HT1A receptor in rat hippocampus at 1 uM; assay type: tissue-based
T2 sequence (whole entry): T1 sequence (P19327 whole entry)

[20] = Neurotoxicity in po dosed mouse by rotarod test; assay type: toxicity, organism-based; details: in vivo
Mus musculus [21] = test: Neurotoxicity in mouse at 50 mg/kg, ip by rotarod test; assay type: toxicity, organism-based; parameters: dose 50 mg/kg, route intraperitoneal; details: in vivo

## COc1cc(OC)cc(N2CCN(CCC(OC(N)=O)c3ccccc3)CC2)c1 (single isomer, unassigned)
Mus musculus [1]
  inhibition in vivo at 10 mg/kg: 13%

## Cc1ccccc1N1CCN(CCC(OC(N)=O)c2ccccc2)CC1 (single isomer, unassigned)
[2]
  IC50: 78.3 nM
[3]
  IC50: 149 nM

## NC(=O)OC(CCN1CCN(c2ccc(O)cc2)CC1)c1ccc(F)cc1 (single isomer, unassigned)
[4]
  half-life: 149 min

## NC(=O)OC(CCN1CCN(c2cccc(C(F)(F)F)c2)CC1)c1ccccc1 (stereo not drawn)
Mus musculus [5]
  Activity: Toxic
Mus musculus [6]
  inhibition in vivo at 10 mg/kg: 14.6%

## CN1CC[C@]23c4c5ccc(O)c4O[C@H]2[C@@H](O)C=C[C@H]3[C@H]1C5 [MORPHINE]
Mus musculus [7]
  ED50: 5.57 mg/kg
Mus musculus [8]
  ED50: 9.15 mg/kg
Mus musculus [9]
  ED50: 13.5 mg/kg
Rattus norvegicus [10]
  ED50: 0.6 mg/kg
Mus musculus [11]
  ED50: 0.96 mg/kg

## COc1ccccc1N1CCN(CCC(OC(N)=O)c2ccccc2)CC1 (single isomer, unassigned)
Mus musculus [12]
  Activity: Toxic
Mus musculus [11]
  ED50: 0.67 mg/kg

## COc1ccc(N2CCN(CCC(OC(N)=O)c3ccccc3)CC2)c(OC)c1 (single isomer, unassigned)
Mus musculus [1]
  inhibition in vivo at 10 mg/kg: 19%

## O=C(c1ccccc1)c1ccc2n1CCC2C(=O)O (stereo not drawn) [KETOROLAC]
Rattus norvegicus [13]
  inhibition in vivo at 100 mg/kg: 36.4%
Mus musculus [8]
  ED50: 17.9 mg/kg
Mus musculus [14]
  ED50: 12.9 mg/kg
Mus musculus [15]
  Activity: inactive

## NC(=O)OC(CCN1CCN(c2ccccc2F)CC1)c1ccccc1 (single isomer, unassigned)
[16]
  TD50: 44.7 mg/kg

## O[C@@H](CCN1CCN(c2ccccc2)CC1)c1ccccc1
[2]
  IC50: 289 nM
[3]
  IC50: 495 nM
Mus musculus [6]
  inhibition in vivo at 10 mg/kg: 66.7%

## NC(=O)OC(CCN1CCN(c2ccccc2Cl)CC1)c1ccccc1 (single isomer, unassigned)
[2]
  IC50: > 100000 nM
[3]
  IC50: 52500 nM

## NC(=O)O[C@H](CCN1CCN(c2ccccc2)CC1)c1ccccc1
[17]
  half-life: 8 min
[2]
  IC50: 62 nM
[4]
  half-life: 62 min
[3]
  IC50: 534 nM
Mus musculus [11]
  ED50: 0.18 mg/kg

## COc1ccc(N2CCN(CCC(OC(N)=O)c3ccc(Cl)c(Cl)c3)CC2)cc1 (single isomer, unassigned)
Mus musculus [1]
  inhibition in vivo at 10 mg/kg: 61%

## COc1ccc(N2CCN(CCC(OC(N)=O)c3ccc(Cl)c(C(F)(F)F)c3)CC2)cc1 (single isomer, unassigned)
Mus musculus [1]
  inhibition in vivo at 10 mg/kg: 46%

## NC(=O)OC(CCN1CCN(c2ccccc2)CC1)c1cccc(Cl)c1 (single isomer, unassigned)
[18]
  inhibition: 93.7%
Mus musculus [1]
  inhibition in vivo at 10 mg/kg: 59%
[19]
  inhibition: 76.4%
Mus musculus [6]
  inhibition in vivo at 10 mg/kg: 100%

## COc1ccc(N2CCN(CCC(OC(N)=O)c3ccc(Cl)cc3)CC2)cc1 (single isomer, unassigned)
Mus musculus [1]
  inhibition in vivo at 10 mg/kg: 51%

## COc1ccc(N2CCN(CCC(OC(N)=O)c3ccc(Cl)cc3Cl)CC2)cc1 (single isomer, unassigned)
Mus musculus [1]
  inhibition in vivo at 10 mg/kg: 16%

## NC(=O)OC(CCN1CCN(c2ccc(Cl)cc2)CC1)c1ccccc1 (single isomer, unassigned)
Mus musculus [6]
  inhibition in vivo at 10 mg/kg: 52%

## NC(=O)OC(CCN1CCN(c2ccccc2)CC1)c1ccccc1 (racemic)
[16]
  TD50: 52.3 mg/kg
[4]
  half-life: 19 min
[20]
  TD50: 124 mg/kg
Mus musculus [11]
  ED50: 0.49 mg/kg

## NC(=O)OC(CCN1CCN(c2ccc(Cl)c(C(F)(F)F)c2)CC1)c1ccccc1 (single isomer, unassigned)
Mus musculus [1]
  inhibition in vivo at 10 mg/kg: 52%

## NC(=O)OC(CCN1CCN(c2ccccc2)CC1)c1ccc(F)cc1 (stereo not drawn)
[18]
  inhibition: 84.7%
[4]
  half-life: 18 min
Mus musculus [21]
  Activity: Non-toxic
[20]
  TD50: 141 mg/kg
[19]
  inhibition: 65.5%
Mus musculus [6]
  inhibition in vivo at 10 mg/kg: 99%

## NC(=O)OC(CCN1CCN(c2ccccc2)CC1)c1ccc(Cl)cc1 (single isomer, unassigned)
[18]
  inhibition: 84.6%
[4]
  half-life: 15 min
Mus musculus [7]
  ED50: 2.1 mg/kg
[19]
  inhibition: 64.6%

## COc1ccc(C(CCN2CCN(c3ccccc3)CC2)OC(N)=O)cc1 (single isomer, unassigned)
[18]
  inhibition: 82%
Mus musculus [1]
  inhibition in vivo at 10 mg/kg: 43%
Mus musculus [21]
  Activity: Toxic
[19]
  inhibition: 67.7%
Mus musculus [6]
  inhibition in vivo at 10 mg/kg: 100%
